# Where two headings read alike, the source gives them in different places.
# What was measured:
# [1] = In vitro human plasma metabolism (enzymolysis kinetics test in human plasma); conditions: for metabolic rate (hydrolysis rate) in human plasma: 0-120 min, FIG. 1 and 2; for degradation rate of the peaks in human plasma: liquid chromatograms, FIG. 3-5
# Experimental: The test scheme was as follows.
# The test method was as follows:
# (§2) (1) a stock solution of Compound NX (where X represents a different compound number) of the present application in pure acetonitrile (40 mM) was prepared, a stock solution of flurbiprofen axetil in pure acetonitrile (40 mM) was prepared, and a stock solution of ibuprofen in pure acetonitrile (40 mM) was prepared.
# (§3) (2) the stock solution of flurbiprofen axetil/ibuprofen (25 μL) was mixed with 1 mL of human plasma and vortexed for 30 s. A sample (200 μL) was taken, added with 800 μL of acetonitrile to precipitate proteins and vortexed for 1 min, and the reaction was stopped as a flurbiprofen axetil/ibuprofen control; and the stock solution of the compound of the present application (40 mM) and the stock solution of flurbiprofen axetil (40 mM) were diluted 200 times separately as prodrug controls;
# (§4) (4) the stock solution of the compound of the present application in pure acetonitrile (100 μL) and the stock solution of flurbiprofen axetil in pure acetonitrile (100 μL) were mixed with 4 mL of human plasma, separately, vortexed for 30 s, and placed in an oscillating constant temperature water bath heater at 37° C. and oscillated at 200 rpm;
# (§5) (6) the samples were centrifuged at 12000 rpm for 10 min at 4° C., the supernatant was taken and injected at a volume of 30 μL (through a filter membrane), and changes of a peak area were recorded;
# [2] = human, 0.98 mM; for Amount of Active Metabolites Produced (%): 120 min; for Remaining Amount of the Prodrug Compound (%): plasma, 2 h
# Experimental: The test scheme was as follows.
# The test method was as follows:
# as §2, §3, §4, §5
# [3] = Stability of dextrorotatory enantiomers in solvents (MCT, soybean oil, phosphate buffer of Tween 80) at 80° C.; type: physicochemical; conditions: for purity of the isomer: oil phase or water phase; for purity of the isomer / related substances in the oil phase / content of the related substance in the water phase: 10 days
# Experimental: Samples were placed at 80° C., and samples were taken on Day 0, 5, and 10 to determine the purity of the compounds and changes of the related substance (ibuprofen) and an isomer (levorotatory).
# 4.2 Determination of the related substance in accordance with high-performance liquid chromatography (Chinese Pharmacopoeia 2015 Edition General Rules 0512)
# (1) Chromatographic conditions: Chromatographic column: Agilent ZORBAX SB-C8, 4.6 mm×250 mm, 5 μm; mobile phase: 0.1% phosphoric acid solution-acetonitrile (50:50); detection wavelength: 220 nm; flowrate: 1.0 mL per minute; column temperature: 40° C.
# (§1) (2) Determination method: An appropriate amount of the substance was taken, accurately weighed, added with a diluent [anhydrous ethanol], shaken to be dissolved, quantitatively diluted into a solution of about 0.4 mg/mL, and vortexed for 30s. The solution was filtered with a PTFE filter membrane (0.22 μm, Jinteng) and the filtrate was used as the test solution, 10 μL was accurately measured into a liquid chromatograph and the chromatogram was recorded. In the chromatogram of the test solution, if there were impurity peaks, the results should be obtained by calculation according to a peak area normalization method.
# 4.3 Determination of the isomer in accordance with high-performance liquid chromatography (Chinese Pharmacopoeia 2015 Edition General Rules 0512)
# as §1, with “Determination” for “(2) Determination”, “isomer” for “substance”, “[n-hexane-isopropanol (90:10)],” for “[anhydrous ethanol],”, “1.0” for “0.4”, “isomer” for “impurity”
# [4] = Pharmacokinetics in rats after tail vein injection (Test Example 4); conditions: rat, in vivo
# Experimental: The whole blood was centrifuged at 8000 rpm for 5 min, and plasma samples were taken and stored at −80° C., separately.
# Preparation of test solutions: the test solutions were administered through tail veins of rats at a volume of […].
# [5] = Phosphate buffer of Tween 80, 80° C., Day 0
# [6] = Phosphate buffer of Tween 80, 80° C., Day 5
# [7] = Phosphate buffer of Tween 80, 80° C., Day 10
smiles,measurement,setting,value
CC(C)Cc1ccc([C@H](C)C(=O)OC(C)OC(=O)OC(C)C)cc1 (stereo partly drawn) [Compound N2S],metabolic rate (hydrolysis rate) in human plasma,[1]; human plasma,relatively slow metabolic rates
same,Remaining Amount of the Prodrug Compound (%),"[1]; human plasma, 37° C., 120 min",78.6 ± 2.6%
same,degradation rate of the peaks in human plasma,[1],relatively slow degradation rate
CC(C)Cc1ccc(C(C)C(=O)OC(C)OC(=O)OC(C)C)cc1 (stereo not drawn) [Compound N2],Amount of Active Metabolites Produced (%),[2],10.7 ± 0.4%
same,Remaining Amount of the Prodrug Compound (%),[2],87.4 ± 5.3%
CCOC(=O)OC(C)OC(=O)[C@@H](C)c1ccc(CC(C)C)cc1 (stereo partly drawn) [Compound N6S],metabolic rate (hydrolysis rate) in human plasma,[1]; human plasma,relatively fast metabolic rates close to that of S-FPA
same,Remaining Amount of the Prodrug Compound (%),"[1]; human plasma, 37° C., 120 min",40.5 ± 1.6%
same,Ibuprofen (%),"[3]; MCT, 80° C., Day 0",0.03%
same,Isomer (%),"[3]; MCT, 80° C., Day 0",3.26%
same,Purity of related Main Peak (%),"[3]; MCT, 80° C., Day 0",99.89%
same,Ibuprofen (%),"[3]; MCT, 80° C., Day 5",0.05%
same,Isomer (%),"[3]; MCT, 80° C., Day 5",3.47%
same,Purity of related Main Peak (%),"[3]; MCT, 80° C., Day 5",99.88%
same,Ibuprofen (%),"[3]; MCT, 80° C., Day 10",0.06%
same,Isomer (%),"[3]; MCT, 80° C., Day 10",3.45%
same,Purity of related Main Peak (%),"[3]; MCT, 80° C., Day 10",99.87%
same,Ibuprofen (%),[3]; [5],2.42%
same,Isomer (%),[3]; [5],3.68%
same,Purity of related Main Peak (%),[3]; [5],97.56%
same,Ibuprofen (%),[3]; [6],10.24%
same,Isomer (%),[3]; [6],3.97%
same,Purity of related Main Peak (%),[3]; [6],89.66%
same,Ibuprofen (%),[3]; [7],16.98%
same,Isomer (%),[3]; [7],3.88%
same,Purity of related Main Peak (%),[3]; [7],82.73%
same,Ibuprofen (%),"[3]; Soybean oil, 80° C., Day 0",0.03%
same,Isomer (%),"[3]; Soybean oil, 80° C., Day 0",3.26%
same,Purity of related Main Peak (%),"[3]; Soybean oil, 80° C., Day 0",99.84%
same,Ibuprofen (%),"[3]; Soybean oil, 80° C., Day 5",0.08%
same,Isomer (%),"[3]; Soybean oil, 80° C., Day 5",3.21%
same,Purity of related Main Peak (%),"[3]; Soybean oil, 80° C., Day 5",99.79%
same,Ibuprofen (%),"[3]; Soybean oil, 80° C., Day 10",0.16%
same,Isomer (%),"[3]; Soybean oil, 80° C., Day 10",3.20%
same,Purity of related Main Peak (%),"[3]; Soybean oil, 80° C., Day 10",99.47%
same,purity of the isomer,[3]; 80° C.,remains basically unchanged
same,related substances in the oil phase,[3]; 80° C.,remain basically unchanged
same,content of the related substance in the water phase,[3]; 80° C.,increases
CCOC(=O)OC(C)OC(=O)C(C)c1ccc(CC(C)C)cc1 (stereo not drawn) [Compound N6],Remaining Amount of the Prodrug Compound (%),[2],58.96 ± 3.1%
CCOC(=O)OC(CC)OC(=O)[C@@H](C)c1ccc(CC(C)C)cc1 (stereo partly drawn) [Compound N9S],metabolic rate (hydrolysis rate) in human plasma,[1]; human plasma,relatively fast metabolic rates close to that of S-FPA
same,Remaining Amount of the Prodrug Compound (%),"[1]; human plasma, 37° C., 120 min",45.0 ± 2.1%
same,Isomer (%),"[3]; MCT, 80° C., Day 0",0.95%
same,Purity of related Main Peak (%),"[3]; MCT, 80° C., Day 0",99.80%
same,Ibuprofen (%),"[3]; MCT, 80° C., Day 5",0.02%
same,Isomer (%),"[3]; MCT, 80° C., Day 5",0.95%
same,Purity of related Main Peak (%),"[3]; MCT, 80° C., Day 5",99.78%
same,Ibuprofen (%),"[3]; MCT, 80° C., Day 10",0.04%
same,Isomer (%),"[3]; MCT, 80° C., Day 10",0.94%
same,Purity of related Main Peak (%),"[3]; MCT, 80° C., Day 10",99.66%
same,Ibuprofen (%),[3]; [5],0.63%
same,Isomer (%),[3]; [5],0.86%
same,Purity of related Main Peak (%),[3]; [5],99.03%
same,Ibuprofen (%),[3]; [6],5.27%
same,Isomer (%),[3]; [6],1.19%
same,Purity of related Main Peak (%),[3]; [6],92.78%
same,Ibuprofen (%),[3]; [7],8.76%
same,Isomer (%),[3]; [7],1.78%
same,Purity of related Main Peak (%),[3]; [7],87.97%
same,Isomer (%),"[3]; Soybean oil, 80° C., Day 0",0.91%
same,Purity of related Main Peak (%),"[3]; Soybean oil, 80° C., Day 0",99.85%
same,Ibuprofen (%),"[3]; Soybean oil, 80° C., Day 5",0.09%
same,Isomer (%),"[3]; Soybean oil, 80° C., Day 5",0.90%
same,Purity of related Main Peak (%),"[3]; Soybean oil, 80° C., Day 5",99.57%
same,Ibuprofen (%),"[3]; Soybean oil, 80° C., Day 10",0.13%
same,Isomer (%),"[3]; Soybean oil, 80° C., Day 10",0.97%
same,Purity of related Main Peak (%),"[3]; Soybean oil, 80° C., Day 10",99.38%
same,purity of the isomer,[3]; 80° C.,remains basically unchanged
same,related substances in the oil phase,[3]; 80° C.,remain basically unchanged
same,content of the related substance in the water phase,[3]; 80° C.,increases
CCOC(=O)OC(CC)OC(=O)C(C)c1ccc(CC(C)C)cc1 (stereo not drawn) [Compound N9],Amount of Active Metabolites Produced (%),[2],20.3 ± 0.8%
same,Remaining Amount of the Prodrug Compound (%),[2],62.5 ± 1.3%
same,AUC0-t compared with dexibuprofen salt solution directly injected,[4],no significant difference
CCC(OC(=O)OC(C)C)OC(=O)[C@@H](C)c1ccc(CC(C)C)cc1 (stereo partly drawn) [Compound N10S],metabolic rate (hydrolysis rate) in human plasma,[1]; human plasma,relatively slow metabolic rates
"CC(=O)OC(C)OC(=O)C(C)c1ccc(-c2ccccc2)c(F)c1 (stereo not drawn) [FPA, flurbiprofen axetil, reference compound]",Remaining Amount of the Prodrug Compound (%),[1],50.9 ± 2.5%
CCOC(=O)O[C@H](C)OC(=O)[C@@H](C)c1ccc(CC(C)C)cc1 [N6(S)-1],degradation rate of the peaks in human plasma,[1],different degradation rates
CCOC(=O)O[C@@H](C)OC(=O)[C@@H](C)c1ccc(CC(C)C)cc1 [N6(S)-2],degradation rate of the peaks in human plasma,[1],different degradation rates
CCOC(=O)O[C@@H](CC)OC(=O)[C@@H](C)c1ccc(CC(C)C)cc1 [N9(S)-2],degradation rate of the peaks in human plasma,[1],different degradation rates
"CC(=O)OC(C)OC(=O)[C@@H](C)c1ccc(-c2ccccc2)c(F)c1 (stereo partly drawn) [S-FPA, reference compound]",Amount of Active Metabolites Produced (%),"[1]; human plasma, 37° C., 120 min",44.3 ± 2.3%
same,Remaining Amount of the Prodrug Compound (%),"[1]; human plasma, 37° C., 120 min",37.4 ± 1.9%
